# Reference: patent publication US20160109459A1, “Compositions And Methods For Heparan Sulfate As A Biomarker For Transplant Rejection” (Duke University, priority 2012, published 2016)
# Tests used:
# [1] = tested on: purified T cells from C57BL/6 mice stimulated with bone marrow-derived BALB/c DCs; assay: Allogeneic T cell proliferation assay (3H-thymidine incorporation, IFN-γ ELISA); assay type: cell-based, mouse
# Experimental: Cells were co-cultured either alone (media) or in the presence of LPS (100 ng/mL), Pam3CSK4 (2 μg/mL), hyaluronan (HA) (100 μg/mL), sonicated-HA (sHA) (100 μg/mL), fibronectin (FN) (100 μg/mL), fibrinogen (Fbn) (100 μg/mL), heparan sulfate (HS) (100 μg/mL), HSP70 (5 μg/mL), HMGB1 (1 μg/mL), C12-iE-DAP (1 μg/mL), or L18-MDP (1 μg/mL) for 72 hours, and then pulsed ^3H-thymidine for 16 hours. Proliferation was determined by ^3H incorporation and results are expressed as cpm±SEM. Baseline alloreactivity is indicated by the dotted line; *p<0.05 compared with media alone. […] Results are representative of three independent experiments.
# T cell proliferation assay: DCs were generated from bone marrow as previously described. (Yang, Y. (2004) Nat. Immunol. 5:508-15). CD3^+ T cells were isolated from B6 mice using a CD3 negative selection magnetic bead kit (Invitrogen, Carlsbad, United States). Proliferation assays were performed as previously described. (Brennan, T. V. et al. (2008) Transplantation 85:247-55).
# Purified T cells from C57BL/6 mice were stimulated with bone marrow-derived DCs from BALB/c mice and their proliferation was measured by the incorporation of ^3H-thymidine. DAMPs tested included proteins—fibronectin (FN), fibrinogen (Fbn), heat shock protein 70 (HSP70), and high-mobility group protein B1 (HMGB1); and glucosaminoglycans—heparan sulfate (HS) and hyaluronan (HA). For comparison, two well-described PAMPs, lipopolysaccharide (LPS) and a synthetic tripalmitoylated lipopeptide (Pam3CSK4) that are ligands of the TLR4 homodimer and the TLR1/2 heterodimer, respectively, were tested. As nucleotide-binding domain, leucine-rich repeat containing receptors (NLRB) are another family of innate immune receptors, ligands of NLR1 (C12-iE-DAP) and NLR2 (L18-MDP) were further tested.
# Next, to investigate whether HS enhanced proliferation of allogeneic T cells was due to the stimulation of TLRs on DCs or T cells, because MyD88 is a common adaptor protein involved in the signal transduction of all TLRs with the exception of TLR3^9, HS was tested against DCs or T cells that were deficient for MyD88. For this purpose, T cells from WT or MyD88^−/− C57BL/6 mice were stimulated with DCs from WT or MyD88^−/− BALB/c mice in an allogeneic proliferation assay in the presence of HS, LPS, Pam3CSK4, or media alone.
# HS has been shown as a TLR4 ligand, (Johnson, G. B. et al., (2002) J. Immunol. 168:5233-39; Johnson, G. B., Brunn, G. J. & Platt, J. L. (2004) J. Immunol. 172:20-24). To determine whether the absence of TLR4 expression on stimulating DCs would reduce HS-induced alloreactive T cell proliferation equivalent to MyD88 deficiency, purified T cells from C57BL/6 mice were co-cultured with irradiated WT, TLR4^−/−, and MyD88^−/− BALB/c DCs and proliferation was measured by the incorporation of ^3H-thymidine.
# Cytokine analysis: Cell culture supernatants were obtained from DC cultures or T cell proliferation assays and assayed for IL-6, IL-12 and IFN-γ by ELISA (BD Biosciences) according to the manufacturer's standard protocols. HEK 293 supernatants were tested for human IL-8 by ELISA (BioLegend, San Diego, United States).
# Allogenic heart transplants were performed between C57BL/6 donors and (BALB/c x DBA.1)F1 recipients. Serum HS was measured by ELISA Immunohistologic staining for HS and CD3 was performed on heart tx tissue. Bone marrow derived dendritic cells (DCs) and purified T cells from WT-, MyD88- or TLR4-deficient mice were used in MLR assays to test for proliferation and cytokine production in response to HS. CD40 and CD80 expression on stimulated DCs was measured by FACS. T cell proliferation was determined by ^3H-thymidine incorporation and CFSE dye dilution assay. HEK293 NF-kB-luciferase reporter cell lines stably expressing CD14, MD2, and TLR4 or TLR2 were used in assays of HS activity.
# [2] = tested on: BALB/c DCs; assay: DC maturation: surface expression of CD40 and CD80 by FACS; assay type: cell-based, mouse; conditions: 24 h; HS 100 μg/mL, Pam3CSK4 2 μg/mL
# Experimental: FIG. 3A is a graph showing WT, TLR4^−/−, or MyD88^−/− BALB/c DCs (2×10^5/well) were stimulated with LPS (100 ng/mL), HS (100 μg/mL), or Pam3CSK4 (2 μg/mL), or left unstimulated (media) for 24 hours, and measured for surface expression of co-stimulatory molecules CD40 and CD80 by FACS analysis. FIGS. 3B and 3C are graphs showing WT, MyD88^−/−, and TLR4^−/− BALB/c cultured DCs were co-cultured with media alone, LPS, HS, or Pam3CSK4 as in (A) and culture supernatants were tested for IL-6 (B) and IL-12 (C) by ELISA. Data are representative of three independent experiments; *p<0.05 compared with media alone.
# To investigate how activation of DCs by HS promoted the alloreactive T cell response, an as DC maturation and production of pro-inflammatory cytokines are key initial events in triggering adaptive immune responses, the ability of HS to upregulate DC expression of costimulatory molecules, CD40 and CD80, and pro-inflammatory cytokines, IL-6 and IL-12 was tested.
# Antibodies and flow cytometry: Anti-CD40 (HM40-3), anti-CD80 (16-10A1), anti-Thy1.1 (OX-7), anti-Ly5.1 (A20) anti-IFN-γ (XMG1.2), rat IgG1 isotype (R3-34), and the BrdU Flow Kit (FITC-labeled) were from BD Biosciences (San Jose, Calif., USA). Intracellular IFN-γ staining was performed as previously described. (Brennan, T. V. et al. (2008) Transplantation 85:247-55). For in vivo BrdU labeling, mice were injected with 50 μg BrdU/gm i.p. 1 hour prior to analysis. Collection of flow cytometric data was acquired using a FACSCanto (BD Biosciences), and events were analyzed using FloJo software (Tree Star, Inc., Ashland, United States).
# [3] = TLR4−/− BALB/c DCs as stimulators
substance,measurement,setting,value
heparan sulfate [HS],IFNg production in MLR assays,[1],increased
same,alloreactive T cell proliferation with MyD88−/− DCs as stimulators,[1]; MyD88−/− BALB/c DCs,abolished the enhanced proliferation
same,IFN-γ production with TLR4−/− DCs,[1]; [3],not able to increase
same,proliferation of allogeneic T cells above baseline with TLR4−/− DCs,[1]; [3],not able to increase
same,alloreactive T cell proliferation compared to media alone,"[1]; WT BALB/c DCs + C57BL/6 T cells, 72 h then 3H-thymidine 16 h, HS 100 μg/mL, HSP70 5 μg/mL, C12-iE-DAP 1 μg/mL, L18-MDP 1 μg/mL",significantly increased
same,upregulation of CD40 and CD80 on WT DCs,[2],upregulation
